These compounds were tested against IgE-Tb / FcεRIα-Y131A-AF488 (Homo sapiens, UniProt P01854) (assay: IgE-Tb / FcεRIα-Y131A-AF488 FRET assay (protocol for examples 1 to 233)). Settings: examples 1 to 233: 5 nM IgE-Tb, 25 nM FcεRIα-Y131A-AF488, incubated 2 hours at room temperature; read-out: Y131A FRET IC50 range.
Sequence of IgE-Tb / FcεRIα-Y131A-AF488 (P01854 1-427 limits assumed, stated change not applied): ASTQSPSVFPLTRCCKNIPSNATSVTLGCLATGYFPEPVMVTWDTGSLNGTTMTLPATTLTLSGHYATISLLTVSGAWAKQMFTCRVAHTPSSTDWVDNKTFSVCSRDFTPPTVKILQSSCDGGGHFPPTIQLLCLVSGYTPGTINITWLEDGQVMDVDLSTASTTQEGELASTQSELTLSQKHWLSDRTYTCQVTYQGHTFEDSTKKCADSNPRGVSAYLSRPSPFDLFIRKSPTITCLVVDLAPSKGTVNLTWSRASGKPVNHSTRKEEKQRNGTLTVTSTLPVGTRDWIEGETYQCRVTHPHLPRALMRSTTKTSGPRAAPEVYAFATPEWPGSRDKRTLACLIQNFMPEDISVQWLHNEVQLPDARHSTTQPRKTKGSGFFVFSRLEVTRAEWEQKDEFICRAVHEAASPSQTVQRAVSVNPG
Format: binding
Method in brief: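 TR-FRET displacement with 5 nM IgE-Tb and 25 nM FcεRIα-Y131A-AF488 (final), 10-point 3-fold compound dilutions from typically 10 μM top, 2% DMSO, 2 h at room temperature. Excitation 330 nm, 520/495 nm emission ratio; MIN set with 200 nM unlabelled FcεRIα. IC50 from four-parameter logistic fit of percent inhibition.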
With `O=C(NCC1CC1)c1c(NC(=O)C2CC2)sc2c1C[C@@H](Nc1ncc[nH]1)CC2` [Example 166, (5S)-2-(Cyclopropanecarbonylamino)-N-(cyclopropylmethyl)-5-(1H-imidazol-2-ylamino)-4,5,6,7-tetrahydrobenzothiophene-3-carboxamide] the IC50 was < 1000 nM. `Cc1cc(Nc2nncn2C2CCc3sc(NC(=O)C4CC4)c(S(=O)(=O)NCC(C)C)c3C2)n(C)n1` (stereo not shown) [Example 167] was tested, and the IC50 was < 1000 nM. For `CON=C(Nc1ccc(C)cc1)NC1CCc2sc(NC(=O)C3CC3)c(C(=O)NCC3CC3)c2C1` (stereo not shown) [Example 168, 2-(Cyclopropanecarbonylamino)-N-(cyclopropylmethyl)-5-[[N′-methoxy-N-(p-tolyl)carbamimidoyl]amino]-4,5,6,7-tetrahydrobenzothiophene-3-carboxamide], the IC50 was < 1000 nM. In the case of `Cc1ccc(NC2=NS(=O)(=O)N=C2NC2CCc3sc(NC(=O)C4CC4)c(C(=O)NCC4CC4)c3C2)cc1` (stereo not shown) [Example 169, 2-(Cyclopropanecarbonylamino)-N-(cyclopropylmethyl)-5-[[4-(4-methylanilino)-1,1-dioxo-1,2,5-thiadiazol-3-yl]amino]-4,5,6,7-tetrahydrobenzothiophene-3-carboxamide], the IC50 is reported as < 1000 nM. Compound `O=C(NCC1CC1)c1c(NC(=O)C2CC2)sc2c1C[C@@H](Nc1nccn1-c1cccnc1)CC2` [Example 170, (5S)-2-(Cyclopropanecarbonylamino)-N-(cyclopropylmethyl)-5-[[1-(3-pyridyl)imidazol-2-yl]amino]-4,5,6,7-tetrahydrobenzothiophene-3-carboxamide] has an IC50 of 1000 to 10000 nM. For `Nc1cnnn1C1CCc2sc(NC(=O)C3CC3)c(C(=O)NCC3CC3)c2C1` (stereo not shown) [Example 171, 5-(5-Aminotriazol-1-yl)-2-(cyclopropanecarbonylamino)-N-(cyclopropylmethyl)-4,5,6,7-tetrahydrobenzothiophene-3-carboxamide], the IC50 was < 1000 nM. `COc1ccccc1NC(=O)NC1CCc2sc(NC(=O)C3CC3)c(C(=O)NCC3CC3)c2C1` (stereo not shown) [Example 172, 2-(Cyclopropanecarbonylamino)-N-(cyclopropylmethyl)-5-[(2-methoxyphenyl)carbamoylamino]-4,5,6,7-tetrahydrobenzothiophene-3-carboxamide] was tested, and the IC50 was < 1000 nM. In the case of `O=C(NC1CCc2sc(NC(=O)C3CC3)c(C(=O)NCC3CC3)c2C1)c1ccncc1` (stereo not shown) [Example 173, N-[2-(Cyclopropanecarbonylamino)-3-(cyclopropylmethylcarbamoyl)-4,5,6,7-tetrahydrobenzothiophen-5-yl]pyridine-4-carboxamide], the IC50 is reported as 1000 to 10000 nM. For `O=C(NCC1CC1)c1c(NC(=O)C2CC2)sc2c1CC(NCc1ccccc1)CC2` (stereo not shown) [Example 174, 5-(Benzylamino)-2-(cyclopropanecarbonylamino)-N-(cyclopropylmethyl)-4,5,6,7-tetrahydrobenzothiophene-3-carboxamide], the IC50 was 10000 to 50000 nM. For `O=C(NCC1CC1)c1c(NC(=O)C2CC2)sc2c1CC(Nc1nc3ccccc3[nH]1)CC2` (stereo not shown) [Example 175, 5-(1H-Benzimidazol-2-ylamino)-2-(cyclopropanecarbonylamino)-N-(cyclopropylmethyl)-4,5,6,7-tetrahydrobenzothiophene-3-carboxamide], the IC50 was < 1000 nM. With `NC(=NO)NC1CCc2sc(NC(=O)C3CC3)c(C(=O)NCC3CC3)c2C1` (stereo not shown) [Example 176, 2-(Cyclopropanecarbonylamino)-N-(cyclopropylmethyl)-5-[[N′-hydroxycarbamimidoyl]amino]-4,5,6,7-tetrahydrobenzothiophene-3-carboxamide] the IC50 was < 1000 nM. `Cc1ccc(NC(=Nc2ccn(C)n2)NC2CCc3sc(NC(=O)C4CC4)c(C(=O)NCC4CC4)c3C2)cc1` (stereo not shown) [Example 177, 2-(Cyclopropanecarbonylamino)-N-(cyclopropylmethyl)-5-[[N′-(1-methylpyrazol-3-yl)-N-(p-tolyl)carbamimidoyl]amino]-4,5,6,7-tetrahydrobenzothiophene-3-carboxamide; formic acid] gave an IC50 of 1000 to 10000 nM. With `CCNc1nnc(COC)n1C1CCc2sc(NC(=O)C3CC3)c(C(=O)NCC3CC3)c2C1` (stereo not shown) [Example 179, 2-(Cyclopropanecarbonylamino)-N-(cyclopropylmethyl)-5-[3-(ethylamino)-5-(methoxymethyl)-1,2,4-triazol-4-yl]-4,5,6,7-tetrahydrobenzothiophene-3-carboxamide] the IC50 was 1000 to 10000 nM. In the case of `O=C(NCC1CC1)c1c(NC(=O)C2CC2)sc2c1CC(Nc1n[nH]c(-c3cccnc3)n1)CC2` (stereo not shown) [Example 180, 2-(Cyclopropanecarbonylamino)-N-(cyclopropylmethyl)-5-[[5-(3-pyridyl)-1H-1,2,4-triazol-3-yl]amino]-4,5,6,7-tetrahydrobenzothiophene-3-carboxamide], the IC50 is reported as < 1000 nM. For `Cc1ccc(OC(=O)NC2CCc3sc(NC(=O)C4CC4)c(C(=O)NCC4CC4)c3C2)cc1` (stereo not shown) [Example 181, p-Tolyl N-[2-(cyclopropanecarbonylamino)-3-(cyclopropylmethylcarbamoyl)-4,5,6,7-tetrahydrobenzothiophen-5-yl]carbamate], the IC50 was < 1000 nM. For `O=C(NCC1CC1)c1c(NC(=O)C2CC2)sc2c1CC(Nc1ncc3ccccc3n1)CC2` (stereo not shown) [Example 182, 2-(Cyclopropanecarbonylamino)-N-(cyclopropylmethyl)-5-(quinazolin-2-ylamino)-4,5,6,7-tetrahydrobenzothiophene-3-carboxamide], the IC50 was < 1000 nM. With `O=C(NCC1CC1)c1c(NC(=O)C2CC2)sc2c1CC(Nc1nc3ccccc3o1)CC2` (stereo not shown) [Example 183, 5-(1,3-Benzoxazol-2-ylamino)-2-(cyclopropanecarbonylamino)-N-(cyclopropylmethyl)-4,5,6,7-tetrahydrobenzothiophene-3-carboxamide] the IC50 was < 1000 nM. With `CCNc1nnc(CO)n1C1CCc2sc(NC(=O)C3CC3)c(C(=O)NCC3CC3)c2C1` (stereo not shown) [Example 184, 2-(Cyclopropanecarbonylamino)-N-(cyclopropylmethyl)-5-[3-(ethylamino)-5-(hydroxymethyl)-1,2,4-triazol-4-yl]-4,5,6,7-tetrahydrobenzothiophene-3-carboxamide] the IC50 was < 1000 nM. In the case of `Cc1cc(Nc2nncn2C2CCc3sc(NC(=O)C4CC4)c(C(=O)NC4CC(F)(F)C4)c3C2)n(C)n1` (stereo not shown) [Example 185, 2-(cyclopropanecarbonylamino)-N-(3,3-difluorocyclobutyl)-5-[3-[(2,5-dimethylpyrazol-3-yl)amino]-1,2,4-triazol-4-yl]-4,5,6,7-tetrahydrobenzothiophene-3-carboxamide], the IC50 is reported as < 1000 nM. `Nc1nccn1[C@H]1CCc2sc(NC(=O)C3CC3)c(C(=O)NCC3CC3)c2C1` [Example 186, (5S)-5-(2-Aminoimidazol-1-yl)-2-(cyclopropanecarbonylamino)-N-(cyclopropylmethyl)-4,5,6,7-tetrahydrobenzothiophene-3-carboxamide] was tested, and the IC50 was < 1000 nM. `Nc1noc(=O)n1C1CCc2sc(NC(=O)C3CC3)c(C(=O)NCC3CC3)c2C1` (stereo not shown) [Example 187, 5-(3-Amino-5-oxo-1,2,4-oxadiazol-4-yl)-2-(cyclopropanecarbonylamino)-N-(cyclopropylmethyl)-4,5,6,7-tetrahydrobenzothiophene-3-carboxamide] was tested, and the IC50 was < 1000 nM. `CCNc1nnc(C)n1C1CCc2sc(NC(=O)C3CC3)c(C(=O)NCC3CC3)c2C1` (stereo not shown) [Example 188, 2-(Cyclopropanecarbonylamino)-N-(cyclopropylmethyl)-5-[3-(ethylamino)-5-methyl-1,2,4-triazol-4-yl]-4,5,6,7-tetrahydrobenzothiophene-3-carboxamide] was tested, and the IC50 was < 1000 nM.

Reference: patent publication US12018021B2 (UCB Biopharma SRL, priority 2018, dated 2024)
